The series has as its system clonal CB1 zebrafish. The series can be described thus: Tumor induction by continuous immersion in DEN solution. Conditions: 100 ppm DEN immersion for 8 weeks. Type of series: in vivo. How it is done:
Tumor induction. Sixty-five 2.5-month-old fish from the clonal CB1 line were used for tumor induction by continuous immersion in N-nitrosodiethylamine (DEN) solution (100 ppm) during the 8 weeks. During DEN, exposure fish were maintained in 20-L acrylic tanks equipped with a mechanical filter and an automatic heater. The filters were cleaned twice weekly. The complete exchange of water containing the carcinogen was done every 2 weeks. The water temperature was maintained at 26±0.5° C. Following completion of DEN exposure the fish were transferred to a 20-L system tank and remained under observation for up to 9 months.
The grossly visible tumors began to emerge in fish 3 to 7 months after the beginning of exposure to DEN. Four spontaneous tumors diagnosed as acinar cell carcinomas of the pancreas were detected in 10.5- to 18-month-old female CB1 fish (See, e.g., FIG. 1G).

This is an account of results in patent US20070044168A1, “Transplantable tumor model” (Northwestern University, priority 2005, published 2007).

Consider `CCN(CC)N=O` [DEN, N-nitrosodiethylamine], for which the “emergence of grossly visible tumors after the beginning of exposure” value (CB1 fish) lay in the range of 3 to 7 months. Also, the “primary tumors localized in the abdominal area” value (sixty-five 2.5-month-old CB1 fish, observed up to 9 months) is on record as 35.
